The values that follow come from ChEMBL document CHEMBL6120975 (2024).

Data set [1] has as its target T1, Neuronal acetylcholine receptor; alpha9/alpha10 (Homo sapiens) (UniProt Q9UGM1+Q9GZZ6). Briefly: Inhibition of human alpha9alpha10 nAChR expressed in acetylcholine-induced Xenopus laevis oocytes assessed as inhibition of acetylcholine-induced current at 30 nM incubated for 5 mins by two electrode voltage-clamp assay. It counts as cell-based. As to conditions: Oocyte.

For data set [2], the target named is Neuronal acetylcholine receptor; alpha9/alpha10 (Homo sapiens, UniProt Q9GZZ6+Q9UGM1). The data set can be described thus: Inhibition of human alpha9alpha10 nAChR expressed in acetylcholine-induced Xenopus laevis oocytes assessed as inhibition of acetylcholine-induced current incubated for 5 mins by two electrode voltage-clamp assay. It counts as cell-based, Oocyte. Background: Two-electrode voltage clamp is typically applied to oocytes expressing channels or transporters.

The target in data set [3] is Neuronal acetylcholine receptor subunit alpha-7 (Homo sapiens, UniProt P36544). Briefly: Inhibition of human alpha7 nAChR expressed in acetylcholine-induced Xenopus laevis oocytes assessed as inhibition of acetylcholine-induced current incubated for 5 mins by two electrode voltage-clamp assay. The data set is classed as cell-based, Oocyte.
For data set [4], the target named is T2, Voltage-dependent N-type calcium channel subunit alpha-1B (Homo sapiens, UniProt Q00975). The data set can be described thus: Inhibition of human eGFP tagged Cav2.2 channel transfected in HEK293T cells co-expressed with human GABAB receptor assessed as inhibition of Cav2.2-mediated Ba2+ current by whole-cell patch clamp assay. The data set is classed as cell-based.
Target sequence in this assay (Q00975 whole entry): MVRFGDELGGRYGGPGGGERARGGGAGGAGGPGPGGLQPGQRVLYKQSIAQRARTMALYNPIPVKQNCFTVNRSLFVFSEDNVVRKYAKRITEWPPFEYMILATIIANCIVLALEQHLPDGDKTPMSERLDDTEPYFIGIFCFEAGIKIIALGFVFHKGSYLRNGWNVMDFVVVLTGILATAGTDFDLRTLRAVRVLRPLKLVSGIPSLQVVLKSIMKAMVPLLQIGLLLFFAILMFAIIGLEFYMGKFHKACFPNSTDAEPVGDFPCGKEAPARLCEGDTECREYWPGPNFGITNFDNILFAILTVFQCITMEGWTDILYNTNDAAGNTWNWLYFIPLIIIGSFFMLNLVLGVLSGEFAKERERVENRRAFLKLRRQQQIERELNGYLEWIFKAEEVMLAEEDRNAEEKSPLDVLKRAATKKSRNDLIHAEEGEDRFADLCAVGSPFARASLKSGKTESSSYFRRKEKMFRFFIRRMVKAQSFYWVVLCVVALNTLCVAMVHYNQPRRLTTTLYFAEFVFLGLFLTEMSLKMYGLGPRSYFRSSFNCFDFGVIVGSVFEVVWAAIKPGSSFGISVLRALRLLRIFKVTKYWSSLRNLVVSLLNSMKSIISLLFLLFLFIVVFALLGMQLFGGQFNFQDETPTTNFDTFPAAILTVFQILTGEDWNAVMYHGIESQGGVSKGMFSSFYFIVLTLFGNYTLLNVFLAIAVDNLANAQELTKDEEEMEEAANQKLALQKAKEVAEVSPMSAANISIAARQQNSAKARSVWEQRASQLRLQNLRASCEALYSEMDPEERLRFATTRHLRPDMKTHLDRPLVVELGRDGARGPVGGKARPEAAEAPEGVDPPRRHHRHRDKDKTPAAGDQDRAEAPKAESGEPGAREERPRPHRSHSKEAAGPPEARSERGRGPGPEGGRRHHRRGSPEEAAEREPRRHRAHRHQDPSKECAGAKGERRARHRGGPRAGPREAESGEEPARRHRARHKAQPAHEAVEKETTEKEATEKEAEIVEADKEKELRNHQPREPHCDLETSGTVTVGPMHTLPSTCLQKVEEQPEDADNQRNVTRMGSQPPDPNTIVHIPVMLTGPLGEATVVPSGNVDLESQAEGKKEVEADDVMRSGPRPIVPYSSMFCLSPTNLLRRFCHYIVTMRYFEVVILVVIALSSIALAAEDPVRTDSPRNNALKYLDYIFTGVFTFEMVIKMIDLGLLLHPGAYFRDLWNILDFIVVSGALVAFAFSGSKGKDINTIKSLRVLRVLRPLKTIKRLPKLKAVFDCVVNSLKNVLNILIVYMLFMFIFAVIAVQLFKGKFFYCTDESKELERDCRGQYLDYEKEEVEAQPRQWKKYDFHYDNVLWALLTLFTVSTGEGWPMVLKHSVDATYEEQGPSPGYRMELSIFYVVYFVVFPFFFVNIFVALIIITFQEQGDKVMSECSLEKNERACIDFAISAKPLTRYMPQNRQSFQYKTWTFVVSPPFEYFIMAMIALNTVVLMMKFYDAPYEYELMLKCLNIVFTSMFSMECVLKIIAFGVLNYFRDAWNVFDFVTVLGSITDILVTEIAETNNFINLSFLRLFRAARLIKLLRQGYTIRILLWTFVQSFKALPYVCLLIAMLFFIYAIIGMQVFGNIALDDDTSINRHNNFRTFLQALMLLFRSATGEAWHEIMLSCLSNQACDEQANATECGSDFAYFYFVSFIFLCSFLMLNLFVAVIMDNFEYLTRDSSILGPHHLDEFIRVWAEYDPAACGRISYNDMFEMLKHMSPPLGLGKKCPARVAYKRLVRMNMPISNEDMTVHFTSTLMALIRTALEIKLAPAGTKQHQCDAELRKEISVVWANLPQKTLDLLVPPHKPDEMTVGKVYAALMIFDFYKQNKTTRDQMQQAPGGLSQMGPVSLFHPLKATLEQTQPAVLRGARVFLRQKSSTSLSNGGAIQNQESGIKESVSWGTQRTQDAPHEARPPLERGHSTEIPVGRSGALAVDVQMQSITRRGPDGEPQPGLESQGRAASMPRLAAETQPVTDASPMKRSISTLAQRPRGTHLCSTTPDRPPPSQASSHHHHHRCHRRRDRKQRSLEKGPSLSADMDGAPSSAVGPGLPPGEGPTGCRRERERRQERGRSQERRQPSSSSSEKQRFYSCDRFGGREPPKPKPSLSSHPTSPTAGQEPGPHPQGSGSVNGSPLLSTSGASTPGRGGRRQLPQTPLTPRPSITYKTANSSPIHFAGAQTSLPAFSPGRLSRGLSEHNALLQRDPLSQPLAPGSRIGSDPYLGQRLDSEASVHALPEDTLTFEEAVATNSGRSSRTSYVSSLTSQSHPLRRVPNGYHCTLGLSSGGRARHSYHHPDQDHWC

In data set [5] the target is T2, Voltage-dependent N-type calcium channel subunit alpha-1B. The data set can be described thus: Inhibition of human eGFP tagged Cav2.2 channel transfected in HEK293T cells co-expressed with human GABAB receptor assessed as inhibition of Cav2.2-mediated Ba2+ current at 100 uM by whole-cell patch clamp assay relative to control. The data set is classed as cell-based.
Target sequence in this assay (Q00975 whole entry, looked up): as the sequence (Q00975 whole entry) above

Data set [6] addresses Neuronal acetylcholine receptor; alpha3/beta4 (Homo sapiens) (UniProt P30926+P32297). Briefly: Inhibition of human alpha3beta4 nAChR expressed in acetylcholine-induced Xenopus laevis oocytes assessed as inhibition of acetylcholine-induced current at 100 nM incubated for 5 mins by two electrode voltage-clamp assay. It counts as cell-based. As to conditions: Oocyte.
The target of data set [7] is Neuronal acetylcholine receptor; alpha3/beta2 (Homo sapiens) (UniProt P17787+P32297). The data set can be described thus: Inhibition of human alpha3beta2 nAChR expressed in acetylcholine-induced Xenopus laevis oocytes assessed as inhibition of acetylcholine-induced current at 100 nM incubated for 5 mins by two electrode voltage-clamp assay. As to conditions: Oocyte. It counts as cell-based.

Data set [8] addresses Neuronal acetylcholine receptor; alpha4/beta4 (Homo sapiens) (UniProt P30926+P43681). Briefly: Inhibition of human alpha4beta4 nAChR expressed in acetylcholine-induced Xenopus laevis oocytes assessed as inhibition of acetylcholine-induced current at 100 nM incubated for 5 mins by two electrode voltage-clamp assay. It counts as cell-based. As to conditions: Oocyte.
Data set [9] concerns the target T1, Neuronal acetylcholine receptor; alpha9/alpha10 (Homo sapiens). The data set can be described thus: Inhibition of human alpha9alpha10 nAChR expressed in acetylcholine-induced Xenopus laevis oocytes assessed as inhibition of acetylcholine-induced current at 100 nM incubated for 5 mins by two electrode voltage-clamp assay. The data set is classed as cell-based. As to conditions: Oocyte.

Data set [10] has as its target Neuronal acetylcholine receptor; alpha4/beta2 (Homo sapiens) (UniProt P17787+P43681). Briefly: Inhibition of human alpha4beta2 nAChR expressed in acetylcholine-induced Xenopus laevis oocytes assessed as inhibition of acetylcholine-induced current at 100 nM incubated for 5 mins by two electrode voltage-clamp assay. The data set is classed as cell-based. As to conditions: Oocyte.

Data set [11] relates to Rattus norvegicus. Briefly: Antinociception activity in Oxaliplatin-induced cold allodynia in rat model assessed as analgesic effect at 250 microg/kg, sc measured after 1 hr. The data set is classed as functional, organism-based. As to conditions: dose 250.0 µg/kg.
The subject of data set [12] is Rattus norvegicus. The data set can be described thus: Antinociception activity in Oxaliplatin-induced cold allodynia in rat model assessed as analgesic effect at 250 microg/kg, sc measured after 4 to 8 hr. The data set is classed as functional, organism-based. As to conditions: dose 250.0 µg/kg, time 4-8 hrs.
The test system of data set [13] is Rattus norvegicus. Briefly: Antinociception activity in Oxaliplatin-induced cold allodynia in rat model assessed as analgesic effect at 250 microg/kg, iv measured after 1 to 12 hr. It counts as functional, organism-based. As to conditions: dose 250.0 µg/kg, time 1-12 hrs.
A short description of data set [14]: Stability in human serum measured upto 24 hrs. It counts as ADME, cell-free.
Data set [15] addresses T2, Voltage-dependent N-type calcium channel subunit alpha-1B. Briefly: Inhibition of human eGFP tagged Cav2.2 channel transfected in HEK293T cells co-expressed with human GABAB receptor assessed as inhibition of Cav2.2-mediated Ba2+ current at 1 uM by whole-cell patch clamp assay. It counts as cell-based. For orientation: Patch clamp records ionic current or voltage across a cell membrane.
Target sequence in this assay (Q00975 whole entry, looked up): as the sequence (Q00975 whole entry) above

Data set [16] shares this target. The data set can be described thus: Inhibition of human eGFP tagged Cav2.2 channel transfected in HEK293T cells co-expressed with human GABAB receptor assessed as inhibition of Cav2.2-mediated Ba2+ current at 100 uM by whole-cell patch clamp assay. It counts as cell-based.
Target sequence in this assay (Q00975 whole entry, looked up): as the sequence (Q00975 whole entry) above
A short description of data set [17]: Stability in human serum assessed as parent compound remaining measured after 24 hrs. The data set is classed as ADME, cell-free.
Data set [18] deals with Rattus norvegicus. The data set can be described thus: Antinociceptive activity in Chronic constriction injury rat model assessed as reduction in pain at 250 microg/kg, IM administration and measured after 2 hrs. The data set is classed as functional, organism-based. As to conditions: dose 250.0 µg/kg.
Data set [19] in a line: Stability in human plasma assessed as half life. It counts as ADME, cell-free.

Activity calls are given as the source filed them. The rule behind the calls is not given here. Where a SMILES comes first, the peptide text is derived from it. [ ]: non-standard residue; d: D form. The star is where a group is joined. X3 = NCCOCCOCCOCCOCCOCCOCCOCCOCCCC(=O)*; Stearoyl = CCCCCCCCCCCCCCCCCC(=O)*; Palmitoyl = CCCCCCCCCCCCCCCC(=O)*; X1 = NCCOCCOCCOCCOCCOCCOCCCC(=O)*; X2 = NCCOCCOCCOCCOCCCC(=O)*; Sar = CNCC(=O)O A value given as a limit tells only on which side of the number the result lay.

Chain of Neuronal acetylcholine receptor; alpha9/alpha10 (Q9UGM1 whole entry): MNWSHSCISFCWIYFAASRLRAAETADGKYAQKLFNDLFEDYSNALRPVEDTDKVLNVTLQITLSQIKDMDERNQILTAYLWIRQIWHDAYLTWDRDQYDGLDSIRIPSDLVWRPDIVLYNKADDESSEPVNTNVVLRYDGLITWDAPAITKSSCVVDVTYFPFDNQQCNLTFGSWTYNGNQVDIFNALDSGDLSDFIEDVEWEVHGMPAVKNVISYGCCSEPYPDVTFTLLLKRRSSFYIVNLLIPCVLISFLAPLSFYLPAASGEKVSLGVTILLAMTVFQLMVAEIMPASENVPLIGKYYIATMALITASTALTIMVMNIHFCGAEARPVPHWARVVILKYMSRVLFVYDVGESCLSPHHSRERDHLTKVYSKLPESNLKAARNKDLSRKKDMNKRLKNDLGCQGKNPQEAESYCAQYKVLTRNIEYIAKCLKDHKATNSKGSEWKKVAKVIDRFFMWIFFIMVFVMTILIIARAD
Chain of Neuronal acetylcholine receptor; alpha9/alpha10 (Q9GZZ6 whole entry): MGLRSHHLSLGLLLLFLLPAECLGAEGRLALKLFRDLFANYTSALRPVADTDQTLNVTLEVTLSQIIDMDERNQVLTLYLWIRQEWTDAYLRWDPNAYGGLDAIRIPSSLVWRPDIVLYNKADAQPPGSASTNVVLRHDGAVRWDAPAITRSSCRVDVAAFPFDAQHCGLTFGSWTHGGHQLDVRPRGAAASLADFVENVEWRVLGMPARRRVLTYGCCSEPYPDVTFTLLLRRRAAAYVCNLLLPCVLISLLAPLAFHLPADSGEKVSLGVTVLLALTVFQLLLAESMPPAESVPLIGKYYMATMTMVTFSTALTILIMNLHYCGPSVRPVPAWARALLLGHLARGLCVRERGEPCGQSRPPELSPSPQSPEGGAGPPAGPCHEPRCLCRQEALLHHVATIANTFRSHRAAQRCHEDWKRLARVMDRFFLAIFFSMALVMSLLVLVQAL
Chain of Neuronal acetylcholine receptor subunit alpha-7 (P36544 whole entry): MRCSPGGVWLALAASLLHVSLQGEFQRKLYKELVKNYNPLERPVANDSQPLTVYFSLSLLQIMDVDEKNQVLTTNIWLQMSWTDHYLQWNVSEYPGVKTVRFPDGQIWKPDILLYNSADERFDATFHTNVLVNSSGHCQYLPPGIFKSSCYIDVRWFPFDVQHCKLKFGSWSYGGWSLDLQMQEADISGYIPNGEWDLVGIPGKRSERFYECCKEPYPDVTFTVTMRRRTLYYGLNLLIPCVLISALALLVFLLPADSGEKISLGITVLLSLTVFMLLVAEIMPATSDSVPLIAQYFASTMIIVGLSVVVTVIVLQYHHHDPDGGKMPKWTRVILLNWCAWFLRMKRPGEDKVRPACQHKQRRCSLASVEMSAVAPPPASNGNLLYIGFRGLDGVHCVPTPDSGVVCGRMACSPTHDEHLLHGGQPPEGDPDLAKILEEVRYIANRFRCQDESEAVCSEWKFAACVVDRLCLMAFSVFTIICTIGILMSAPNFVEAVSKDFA

As to `CC[C@H](C)[C@H](NC(=O)[C@H](CCCNC(=N)N)NC(=O)[C@H](CCCNC(=N)N)NC(=O)[C@H](Cc1ccc(O)cc1)NC(=O)[C@H](CCCNC(=N)N)NC(=O)[C@H](CCCNC(=N)N)NC(=O)[C@H](CCCNC(=N)N)NC(=O)[C@H](CCCNC(=N)N)NC(=O)[C@H](CC(=O)O)NC(=O)[C@H](Cc1ccc(O)cc1)NC(=O)[C@@H]1CCCN1C(=O)[C@H](CO)NC(=O)[C@H](CCCNC(=N)N)NC(=O)[C@H](Cc1ccc(O)cc1)NC(=O)[C@H](CCCNC(=N)N)NC(=O)CNC)C(=O)N[C@H](C(=O)N[C@@H](CC(=O)O)C(N)=O)[C@@H](C)O` (H-[Sar]RYRSPYDRRRRYRRITD-NH2), the inhibition entry in data set [1] and in [10] was “Active” throughout. Besides, the half-maximal inhibitory concentration (IC50) in [2] was found to be 14.2 nM; in [3], 121 nM; in [4] it was 7800 nM. Besides, in [5], the inhibition is 100%. For the same molecule, the inhibition entry in data set [6], in data set [7], in data set [8] and in [9] was “inactive” in each case. In addition, the result with Rattus norvegicus [11] was inactive. For the same molecule, the outcome with Rattus norvegicus [12] and in the data set on Rattus norvegicus [13] was Active.
As for `CCCCCCCCCCCCCCCC(=O)NCC(=O)N[C@@H](CCCNC(=N)N)C(=O)N[C@@H](Cc1ccc(O)cc1)C(=O)N[C@@H](CCCNC(=N)N)C(=O)N[C@@H](CO)C(=O)N1CCC[C@H]1C(=O)N[C@@H](Cc1ccc(O)cc1)C(=O)N[C@@H](CC(=O)O)C(=O)N[C@@H](CCCNC(=N)N)C(=O)N[C@@H](CCCNC(=N)N)C(=O)N[C@@H](CCCNC(=N)N)C(=O)N[C@@H](CCCNC(=N)N)C(=O)N[C@@H](Cc1ccc(O)cc1)C(=O)N[C@@H](CCCNC(=N)N)C(=O)N[C@@H](CCCNC(=N)N)C(=O)N[C@H](C(=O)N[C@H](C(=O)N[C@@H](CC(=O)O)C(N)=O)[C@@H](C)O)[C@@H](C)CC` (Palmitoyl-GRYRSPYDRRRRYRRITD-NH2), in data set [14], the Stability entry is on record as “Stable”. Further, the inhibition result in data set [1] is “inactive”. Besides, the results for the inhibition result in [15] and in data set [16] were “Active; Compound Showed Weak Inhibitory Activity” and “Active; Compound Showed Minimal Activity”, respectively.
For `CCCCCCCCCCCCCCCCCC(=O)NCC(=O)N[C@@H](CCCNC(=N)N)C(=O)N[C@@H](Cc1ccc(O)cc1)C(=O)N[C@@H](CCCNC(=N)N)C(=O)N[C@@H](CO)C(=O)N1CCC[C@H]1C(=O)N[C@@H](Cc1ccc(O)cc1)C(=O)N[C@@H](CC(=O)O)C(=O)N[C@@H](CCCNC(=N)N)C(=O)N[C@@H](CCCNC(=N)N)C(=O)N[C@@H](CCCNC(=N)N)C(=O)N[C@@H](CCCNC(=N)N)C(=O)N[C@@H](Cc1ccc(O)cc1)C(=O)N[C@@H](CCCNC(=N)N)C(=O)N[C@@H](CCCNC(=N)N)C(=O)N[C@H](C(=O)N[C@H](C(=O)N[C@@H](CC(=O)O)C(N)=O)[C@@H](C)O)[C@@H](C)CC` (Stearoyl-GRYRSPYDRRRRYRRITD-NH2), in that order: “Stable”, “inactive”, “Active; Compound Showed Weak Inhibitory Activity” and “Active; Compound Showed Minimal Activity”.
As for `CC[C@H](C)[C@H](NC(=O)[C@H](CCCNC(=N)N)NC(=O)[C@H](CCCNC(=N)N)NC(=O)[C@H](Cc1ccc(O)cc1)NC(=O)[C@H](CCCNC(=N)N)NC(=O)[C@H](CCCNC(=N)N)NC(=O)[C@H](CCCNC(=N)N)NC(=O)[C@H](CCCNC(=N)N)NC(=O)[C@H](CC(=O)O)NC(=O)[C@H](Cc1ccc(O)cc1)NC(=O)[C@@H]1CCCN1C(=O)[C@H](CO)NC(=O)[C@H](CCCNC(=N)N)NC(=O)[C@H](Cc1ccc(O)cc1)NC(=O)[C@H](CCCNC(=N)N)NC(=O)CNC(=O)CCCOCCOCCOCCOCCOCCOCCN)C(=O)N[C@H](C(=O)N[C@@H](CC(=O)O)C(N)=O)[C@@H](C)O` (X1-GRYRSPYDRRRRYRRITD-NH2), in data set [17], the share remaining at 24 h is above 80%. For the same molecule, the inhibition result in data set [1] is “Active”. Further, the inhibition result was “Active; Compound Showed Weak Inhibitory Activity” in data set [15] and “Active; Compound Showed Minimal Activity” in data set [16]. Moreover, the IC50 in data set [2] worked out at 15.9 nM. Moreover, the result in the data set with Rattus norvegicus [18] was inactive.
Turning to `CC[C@H](C)[C@H](NC(=O)[C@H](CCCNC(=N)N)NC(=O)[C@H](CCCNC(=N)N)NC(=O)[C@H](Cc1ccc(O)cc1)NC(=O)[C@H](CCCNC(=N)N)NC(=O)[C@H](CCCNC(=N)N)NC(=O)[C@H](CCCNC(=N)N)NC(=O)[C@H](CCCNC(=N)N)NC(=O)[C@H](CC(=O)O)NC(=O)[C@H](Cc1ccc(O)cc1)NC(=O)[C@@H]1CCCN1C(=O)[C@H](CO)NC(=O)[C@H](CCCNC(=N)N)NC(=O)[C@H](Cc1ccc(O)cc1)NC(=O)[C@H](CCCNC(=N)N)NC(=O)CNC(=O)CCCOCCOCCOCCOCCN)C(=O)N[C@H](C(=O)N[C@@H](CC(=O)O)C(N)=O)[C@@H](C)O` (X2-GRYRSPYDRRRRYRRITD-NH2), in data set [17], the amount remaining at 24 h was above 80%. The inhibition result in data set [1] is “Active”. For the same molecule, the inhibition entry in data set [15] is recorded as “Active; Compound Showed Weak Inhibitory Activity”; in data set [16], “Active; Compound Showed Minimal Activity”. Further, in data set [2], the IC50 was determined as 7.8 nM. For the same molecule, the result in the data set on Rattus norvegicus [18] was inactive.
As to `CC[C@H](C)[C@H](NC(=O)[C@H](CCCNC(=N)N)NC(=O)[C@H](CCCNC(=N)N)NC(=O)[C@H](Cc1ccc(O)cc1)NC(=O)[C@H](CCCNC(=N)N)NC(=O)[C@H](CCCNC(=N)N)NC(=O)[C@H](CCCNC(=N)N)NC(=O)[C@H](CCCNC(=N)N)NC(=O)[C@H](CC(=O)O)NC(=O)[C@H](Cc1ccc(O)cc1)NC(=O)[C@@H]1CCCN1C(=O)[C@H](CO)NC(=O)[C@H](CCCNC(=N)N)NC(=O)[C@H](Cc1ccc(O)cc1)NC(=O)[C@H](CCCNC(=N)N)NC(=O)CNC(=O)CCCOCCOCCOCCOCCOCCOCCOCCOCCN)C(=O)N[C@H](C(=O)N[C@@H](CC(=O)O)C(N)=O)[C@@H](C)O` (X3-GRYRSPYDRRRRYRRITD-NH2), the share remaining at 24 h in data set [17] was above 80%. Moreover, the inhibition entry in [1] is “Active”. For the same molecule, the inhibition entry in data set [15] is “Active; Compound Showed Weak Inhibitory Activity”; in data set [16], “Active; Compound Showed Minimal Activity”. Besides, the concentration for half-maximal inhibition (IC50) in data set [2] turned out to be 11.8 nM. Moreover, in the data set with Rattus norvegicus [18], the outcome was inactive.
With H-GRYRSPYDRRRRYRRITD-NH2, the half-life in data set [19] is below 30 min.

As a reminder, the inhibition is the drop in the measured response relative to a control, in per cent. One may read the IC50 as the concentration at which inhibition is half-maximal. Usually share remaining stands for the share of the starting amount still present when the sample was taken. For orientation: half-life means the time in which the quantity being followed falls by half.
